Assays:
B. cereus ATCC 11778 = assay: MIC, NCCLS broth microdilution, B. cereus; type: cell-based, Bacillus cereus
Description: (§1) It vitro biological activity data were collected for a variety of microorganisms, including Bacillus cereus (ATCC 11778), Staphylococcus aureus (ATCC 33591; ATCC 27660, a methicillin resistant strain (MRSA); ATCC 13709, a methicillin sensitive strain (MSSA)), Enterococcus faecalis (ATCC 29212), and Streptococcus pneumoniae (ATCC 49619). Additionally, antifungal activity data were collected for Candida albicans (ATCC 38247).
(§2) Compounds according to this invention were screened for their in vitro activities against selected species of bacteria and fungi. The minimal inhibition concentration (MIC) of these compounds was determined using the National Committee for Clinical Laboratory Standards (NCCLS) broth microdilution assay in microtiter plates, as set forth in: (1) the guidelines of the National Committee for Clinical Laboratory Standards (NCCLS) Document M7-A4 (NCCLS, 1997); (2) the guidelines of the National Committee for Clinical Laboratory Standards (NCCLS) Document M11-A4 (NCCLS, 1997); and (3) the guidelines and reference method of the National Committee for Clinical Laboratory Standards (NCCLS) Document M27-T (NCCLS, 1995). For antifungal assays, the method recommended in Murray, P R., 1995 Manual of Clinical Microbiology (ASM Press, Washington, D.C.), was employed.

C. albicans ATCC 38247 = assay: MIC, antifungal assay, C. albicans; type: cell-based, Candida albicans
Description: as §1, §2

E. faecalis ATCC 29212 = assay: MIC, NCCLS broth microdilution, E. faecalis; type: cell-based, Enterococcus faecalis
Description: as §1, §2

S. aureus ATCC 13709 = assay: MIC, NCCLS broth microdilution, S. aureus MSSA; type: cell-based, Staphylococcus aureus; conditions: S. aureus ATCC 13709, methicillin sensitive strain (MSSA)
Description: as §1, §2

S. aureus ATCC 27660 = assay: MIC, NCCLS broth microdilution, S. aureus MRSA; type: cell-based, Staphylococcus aureus; conditions: S. aureus ATCC 27660, methicillin resistant strain (MRSA)
Description: as §1, §2

S. aureus ATCC 33591 = assay: MIC, NCCLS broth microdilution, S. aureus ATCC 33591; type: cell-based, Staphylococcus aureus
Description: as §1, §2

S. pneumoniae ATCC 49619 = assay: MIC, NCCLS broth microdilution, S. pneumoniae; type: cell-based, Streptococcus pneumoniae
Description: as §1, §2

Compound | Minimum Inhibitory Concentration (MIC), organism A (B. cereus ATCC 11778) | Minimum Inhibitory Concentration (MIC), organism B (C. albicans ATCC 38247) | Minimum Inhibitory Concentration (MIC), organism C (E. faecalis ATCC 29212) | Minimum Inhibitory Concentration (MIC), organism D (S. aureus ATCC 13709) | Minimum Inhibitory Concentration (MIC), organism E (S. aureus ATCC 27660) | Minimum Inhibitory Concentration (MIC), organism F (S. aureus ATCC 33591) | Minimum Inhibitory Concentration (MIC), organism G (S. pneumoniae ATCC 49619)
Cn1cc(NC(=O)c2cc3ccccc3cn2)cc1C(=O)Nc1cc(-c2nc3ccc(OC(=O)CCN4CCOCC4)cc3[nH]2)n(C)c1 [Compound A-9] | +++ (MIC ≦ 4 μg/mL) | >32 µg/mL | +++ (MIC ≦ 4 μg/mL) | +++ (MIC ≦ 4 μg/mL) | +++ (MIC ≦ 4 μg/mL) | +++ (MIC ≦ 4 μg/mL) | +++ (MIC ≦ 4 μg/mL)
Cc1cccc2nc(-c3cc(NC(=O)c4cc(NC(=O)c5cc6ccccc6cn5)cn4C)cn3C)[nH]c12 [Compound A-3] | >32 µg/mL | >32 µg/mL | >32 µg/mL | >32 µg/mL | >32 µg/mL | >32 µg/mL | >32 µg/mL
Cn1cc(NC(=O)c2cc(NC(=O)c3sccc3Cl)cn2CCC[n+]2ccccc2)cc1-c1nc2ccccc2[nH]1 [Compound A-56] | >32 µg/mL | >32 µg/mL | >32 µg/mL | + (12 ≦ MIC ≦ 32 μg/mL) | + (12 ≦ MIC ≦ 32 μg/mL) | + (12 ≦ MIC ≦ 32 μg/mL) | >32 µg/mL
CN(C)CCCn1cc(NC(=O)c2sc3ccccc3c2Cl)cc1C(=O)Nc1cc(-c2nc3ncccc3[nH]2)n(C)c1 [Compound A-28] | +++ (MIC ≦ 4 μg/mL) | >32 µg/mL | +++ (MIC ≦ 4 μg/mL) | +++ (MIC ≦ 4 μg/mL) | +++ (MIC ≦ 4 μg/mL) | +++ (MIC ≦ 4 μg/mL) | +++ (MIC ≦ 4 μg/mL)
Cn1cc(NC(=O)c2cc3ccccc3cn2)cc1C(=O)Nc1cc(-c2nc3cc(O)ccc3[nH]2)n(C)c1 [Compound A-6] | +++ (MIC ≦ 4 μg/mL) | >32 µg/mL | +++ (MIC ≦ 4 μg/mL) | +++ (MIC ≦ 4 μg/mL) | +++ (MIC ≦ 4 μg/mL) | +++ (MIC ≦ 4 μg/mL) | +++ (MIC ≦ 4 μg/mL)
Cn1cc(NC(=O)c2cc3ccccc3cn2)cc1C(=O)Nc1cc(-c2nc3ccc(NC(=O)CCN4CCOCC4)cc3[nH]2)n(C)c1 [Compound A-11] | +++ (MIC ≦ 4 μg/mL) | >32 µg/mL | +++ (MIC ≦ 4 μg/mL) | +++ (MIC ≦ 4 μg/mL) | +++ (MIC ≦ 4 μg/mL) | +++ (MIC ≦ 4 μg/mL) | +++ (MIC ≦ 4 μg/mL)
CC1CCN(CCCn2cc(NC(=O)c3sccc3Cl)cc2C(=O)Nc2cc(-c3nc4ccccc4[nH]3)n(C)c2)CC1 [Compound A-52] | +++ (MIC ≦ 4 μg/mL) | + (12 ≦ MIC ≦ 32 μg/mL) | +++ (MIC ≦ 4 μg/mL) | +++ (MIC ≦ 4 μg/mL) | +++ (MIC ≦ 4 μg/mL) | +++ (MIC ≦ 4 μg/mL) | +++ (MIC ≦ 4 μg/mL)
CC1CCN(CCCn2cc(NC(=O)c3ccc(Cl)cc3F)cc2C(=O)Nc2cc(-c3nc4cccnc4[nH]3)n(C)c2)CC1 [Compound A-41] | +++ (MIC ≦ 4 μg/mL) | >32 µg/mL | +++ (MIC ≦ 4 μg/mL) | +++ (MIC ≦ 4 μg/mL) | +++ (MIC ≦ 4 μg/mL) | +++ (MIC ≦ 4 μg/mL) | +++ (MIC ≦ 4 μg/mL)
Cn1cc(NC(=O)c2cc(NC(=O)c3ccc(Cl)cc3F)cn2CCCN(CCO)CCO)cc1-c1nc2cccnc2[nH]1 [Compound A-44] | + (12 ≦ MIC ≦ 32 μg/mL) | >32 µg/mL | ++ (4 < MIC < 12 μg/mL) | ++ (4 < MIC < 12 μg/mL) | +++ (MIC ≦ 4 μg/mL) | +++ (MIC ≦ 4 μg/mL) | +++ (MIC ≦ 4 μg/mL)
Cn1cc(NC(=O)c2cc(NC(=O)c3ccc(Cl)cc3F)cn2CCCN(CCO)CCO)cc1-c1nc2ccccc2[nH]1 [Compound A-36] | ++ (4 < MIC < 12 μg/mL) | + (12 ≦ MIC ≦ 32 μg/mL) | +++ (MIC ≦ 4 μg/mL) | ++ (4 < MIC < 12 μg/mL) | +++ (MIC ≦ 4 μg/mL) | +++ (MIC ≦ 4 μg/mL) | +++ (MIC ≦ 4 μg/mL)
Cn1cc(NC(=O)c2cc3ccccc3cn2)cc1C(=O)Nc1cc(-c2nc3ccncc3[nH]2)n(C)c1 [Compound A-14] | +++ (MIC ≦ 4 μg/mL) | >32 µg/mL | +++ (MIC ≦ 4 μg/mL) | +++ (MIC ≦ 4 μg/mL) | +++ (MIC ≦ 4 μg/mL) | +++ (MIC ≦ 4 μg/mL) | +++ (MIC ≦ 4 μg/mL)
Cn1cc(NC(=O)c2cc(NC(=O)c3sccc3Cl)cn2CCCN(CCO)CCO)cc1-c1nc2ccccc2[nH]1 [Compound A-55] | + (12 ≦ MIC ≦ 32 μg/mL) | >32 µg/mL | + (12 ≦ MIC ≦ 32 μg/mL) | + (12 ≦ MIC ≦ 32 μg/mL) | ++ (4 < MIC < 12 μg/mL) | ++ (4 < MIC < 12 μg/mL) | ++ (4 < MIC < 12 μg/mL)
Cn1cc(NC(=O)c2cc(NC(=O)c3sccc3Cl)cn2CCC[n+]2ccccc2)cc1-c1nc2ncccc2[nH]1 [Compound A-62] | >32 µg/mL | >32 µg/mL | >32 µg/mL | >32 µg/mL | + (12 ≦ MIC ≦ 32 μg/mL) | + (12 ≦ MIC ≦ 32 μg/mL) | + (12 ≦ MIC ≦ 32 μg/mL)

Source: patent US7265129B2, “Anti-infective biaryl compounds” (priority 2002, dated 2007)
